Laboratory results from patent publication US20250018047A1, “METHODS AND COMPOSITIONS FOR TARGETED PROTEIN DEGRADATION” (Ranok Therapeutics (Hangzhou) Co. Ltd., priority 2021, published 2025).
Where a name gives a salt, the structure may show the parent alone. Read-outs that look alike come from different tables or passages of the source.

Tests used:
[1] = system: A-427 human lung carcinoma; experiment: CellTiter-Glo cancer cell line proliferation assay, A-427; type: cell-based; conditions: read-out: A427 at 24 hrs, IC50
Procedure: (§1) Cell lines were cultured according to ATCC and recommendations.
(§2) CellTiter-Glo® Reagent Cancer Cell Line Proliferation Assays
(§3) Cells were plated in 96-well tissue culture plates at 4,000 cells/well and incubated at 37° C./5% CO2 for 24 hr in 100 μl of media. […] Cells were then treated with test compounds at various concentrations with a final concentration of 0.5% DMSO/well, and then incubated at 37° C./5% CO2 for 24 hr. 100 μl of CellTiter-Glo® Reagent (Promega Corporation, Madison, WI) was added to each well and processed according manufacturer's protocol. Results were analyzed and IC50-values were calculated in GraphPad 7 software.

[2] = system: AsPC-1 human pancreatic adenocarcinoma; experiment: CellTiter-Glo cancer cell line proliferation assay, AsPC-1; type: cell-based
Procedure: as §1, §2, §3

[3] = target: T1, KRAS(G12D) (Homo sapiens, UniProt P01116, G12D); experiment: SW1990 WB assay (degradation DC50, Dmax); type: cell-based; conditions: Western blot, SW1990 cells
T1 construct: endogenous in cells; host or cells: SW1990

[4] = target: T2, KRAS(G12D)/SOS1 (Homo sapiens, UniProt P01116, G12D); experiment: KRAS(G12D)/SOS1 homogeneous time-resolved fluorescence (HTRF) assay; type: binding; conditions: absence of GTP, 4° C. for 3 hr
T2 construct: purchased Cisbio 63ADK000CB16PEG
Procedure: The test compound was mixed and incubated with reaction components, incubated in a sealed plate at 4° C. for 3 hr and fluorescence was measured using a PerkinElmer Envision plate reader.

[5] = target: BA/F3-KRAS(G12D) murine pro-B cell line stably expressing KRAS(G12D) (Homo sapiens, UniProt P01116, G12D, cells depend on it); experiment: CellTiter-Glo cancer cell line proliferation assay, BA/F3-KRAS(G12D); type: cell-based; conditions: 24 hr, read-out: BAF3 at 24 hrs, IC50
Procedure: The following cancer cell lines were employed: AsPC-1 human pancreatic adenocarcinoma (ATCC, #CRL-1682); A-427 human lung carcinoma (ATCC, #HTB-53); BA/F3-KRAS(G12D) murine pro-B cell line stably expressing KRAS(G12D) (Precedo, Hefei, China). Cell lines were cultured according to ATCC and recommendations. BA/F3-KRAS(G12D) cells were cultured in RPMI 1640 media with 10% fetal calf serum, 100 units/mL penicillin and […] streptomycin, and 1% glutamine.
as §2
Cells were plated in 96-well tissue culture plates at 4,000 cells/well and incubated at 37° C./5% CO2 for 24 hr in 100 μl of media. 3-fold serial dilutions of each test compound were prepared ranging from 20 μM to 1.02 nM. Cells were then treated with test compounds at various concentrations with a final concentration of 0.5% DMSO/well, and then incubated at 37° C./5% CO2 for 24 hr. 100 μl of CellTiter-Glo® Reagent (Promega Corporation, Madison, WI) was added to each well and processed according manufacturer's protocol. Results were analyzed and IC50-values were calculated in GraphPad 7 software.

T1 sequence (P01116 1-188 isoform P01116-2 G12D): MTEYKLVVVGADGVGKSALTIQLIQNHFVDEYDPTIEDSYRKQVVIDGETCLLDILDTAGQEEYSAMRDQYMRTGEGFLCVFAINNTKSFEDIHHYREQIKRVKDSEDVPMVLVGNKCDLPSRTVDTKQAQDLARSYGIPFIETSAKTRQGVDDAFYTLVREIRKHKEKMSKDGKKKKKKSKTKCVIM
T2 sequence (P01116 1-188 isoform P01116-2 G12D): as above
Sequence of BA/F3-KRAS(G12D) murine pro-B cell line stably expressing KRAS(G12D) (P01116 whole entry G12D): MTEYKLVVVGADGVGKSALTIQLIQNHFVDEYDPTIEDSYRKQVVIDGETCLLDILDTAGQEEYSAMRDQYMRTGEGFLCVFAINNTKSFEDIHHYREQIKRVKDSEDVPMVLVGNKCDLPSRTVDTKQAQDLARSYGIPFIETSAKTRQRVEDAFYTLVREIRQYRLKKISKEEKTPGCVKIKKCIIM

C#Cc1c(F)ccc2cc(O)cc(-c3ncc4c(N5CC6CCC(C5)N6)nc(OCC5(CN6CCC(C7CCN(c8ccc9c(c8)CN(C8CCC(=O)NC8=O)C9=O)CC7)CC6)CC5)nc4c3F)c12 (centres unmarked) [Compound 102]
IC50 ([1]; Homo sapiens, A-427, 24 hr): 100 to 1000 nM
IC50 ([2]; Homo sapiens, ASPC1, 24 hr): < 100 nM
DC50 [3]: 100 to 1000 nM
Dmax [3]: 10 to 50%
IC50 [4]: < 100 nM

C#Cc1cccc2cc(O)cc(-c3nc(OC)c4c(N5CC6CCC(C5)N6)nc(OCC5(CN6CCN(CC7CCN(c8ccc9c(c8)CN(C8CCC(=O)NC8=O)C9=O)CC7)CC6)CC5)nc4c3F)c12 (centres unmarked) [Compound 78]
IC50 ([1]; Homo sapiens, A-427, 24 hr): < 100 nM
IC50 ([2]; Homo sapiens, ASPC1, 24 hr): < 100 nM
DC50 [3]: < 100 nM
Dmax [3]: > 50%
IC50 [4]: < 100 nM

C#Cc1cccc2cccc(-c3ncc4c(N5CC6CCC(C5)N6)nc(OC[C@@H]5CC[C@H](CN6CCN(Cc7ccc8c(c7)C(=O)N(C7CCC(=O)NC7=O)C8=O)CC6)N5C)nc4c3F)c12 (stereo partly drawn) [Compound 15, 5-((4-(((2R,5S)-5-(((4-(3,8-diazabicyclo[3.2.1]octan-3-yl)-7-(8-ethynylnaphthalen-1-yl)-8-fluoropyrido[4,3-d]pyrimidin-2-yl)oxy)methyl)-1-methylpyrrolidin-2-yl)methyl)piperazin-1-yl)methyl)-2-(2,6-dioxopiperidin-3-yl)isoindoline-1,3-dione formate]
IC50 ([1]; Homo sapiens, A-427, 24 hr): > 1000 nM
GI50 [5]: > 1000 nM
IC50 [4]: < 100 nM

C#Cc1cccc2cc(O)cc(-c3ncc4c(N5CC6CCC(C5)N6)nc(OCC5(CN6CCN(CC7CCN(CCC(=O)N[C@@H](C(=O)N8C[C@@H](O)C[C@@H]8C(=O)NCc8ccc(-c9scnc9C)cc8)C(C)(C)C)CC7)CC6)CC5)nc4c3F)c12 [Compound 83]
IC50 ([1]; Homo sapiens, A-427, 24 hr): > 1000 nM
IC50 ([2]; Homo sapiens, ASPC1, 24 hr): > 1000 nM
DC50 [3]: > 1000 nM
Dmax [3]: 10 to 50%
IC50 [4]: < 100 nM

C#Cc1c(F)ccc2cc(O)cc(-c3nc(OC)c4c(N5CC6CCC(C5)N6)nc(OCC5(CN6CCN(CC7CCN(c8ccc9c(c8)CN(C8CCC(=O)NC8=O)C9=O)CC7)CC6)CC5)nc4c3F)c12 (centres unmarked) [Compound 100]
IC50 ([1]; Homo sapiens, A-427, 24 hr): 100 to 1000 nM
IC50 ([2]; Homo sapiens, ASPC1, 24 hr): < 100 nM
DC50 [3]: > 1000 nM
Dmax [3]: 10 to 50%
IC50 [4]: < 100 nM

C#Cc1cccc2cc(O)cc(-c3ncc4c(N5CC6CCC(C5)N6)nc(OCC5(CN6CCN(CC7CCN(c8ccc(NC9CCC(=O)NC9=O)cc8)CC7)CC6)CC5)nc4c3F)c12 (centres unmarked) [Compound 95]
IC50 ([1]; Homo sapiens, A-427, 24 hr): 100 to 1000 nM
IC50 ([2]; Homo sapiens, ASPC1, 24 hr): 100 to 1000 nM
DC50 [3]: > 1000 nM
Dmax [3]: < 10%
IC50 [4]: < 100 nM

C#Cc1c(F)ccc2cc(O)cc(-c3ncc4c(N5CC6CCC(C5)N6)nc(OCC5(CN6CCC(CN7CCN(c8ccc9c(c8)CN(C8CCC(=O)NC8=O)C9=O)CC7)CC6)CC5)nc4c3F)c12 (centres unmarked) [Compound 99]
IC50 ([1]; Homo sapiens, A-427, 24 hr): > 1000 nM
IC50 ([2]; Homo sapiens, ASPC1, 24 hr): < 100 nM
DC50 [3]: < 100 nM
Dmax [3]: > 50%
IC50 [4]: < 100 nM

C#Cc1cccc2cc(O)cc(-c3ncc4c(N5CC6CCC(C5)N6)nc(OCC5(CN6CCN(CC7CCN(c8ccc9c(c8)CN(C8CCC(=O)NC8=O)C9=O)CC7)CC6)CC5)nc4c3F)c12 (centres unmarked) [Compound 57]
IC50 ([1]; Homo sapiens, A-427, 24 hr): < 100 nM
IC50 ([2]; Homo sapiens, ASPC1, 24 hr): < 100 nM
DC50 [3]: < 100 nM
Dmax [3]: > 50%
IC50 [4]: < 100 nM

C#Cc1cccc2cc(O)cc(-c3ncc4c(N5CC6CCC(C5)N6)nc(OCC5(CN6CCN(CC7CCN(c8ccc9c(c8)CN(C8CCC(=O)NC8=O)C9=O)CC7)[C@@H](C7CC7)C6)CC5)nc4c3F)c12 (some centres unmarked) [Compound 96]
IC50 ([1]; Homo sapiens, A-427, 24 hr): 100 to 1000 nM
IC50 ([2]; Homo sapiens, ASPC1, 24 hr): < 100 nM
DC50 [3]: > 1000 nM
Dmax [3]: 10 to 50%
IC50 [4]: < 100 nM

C#Cc1cccc2cc(O)cc(-c3ncc4c(N5CC6CCC(C5)N6)nc(OCC5(CN(C)CC6CCN(c7ccc8c(c7)CN(C7CCC(=O)NC7=O)C8=O)CC6)CC5)nc4c3F)c12 (centres unmarked) [Compound 84]
IC50 ([1]; Homo sapiens, A-427, 24 hr): > 1000 nM
IC50 ([2]; Homo sapiens, ASPC1, 24 hr): > 1000 nM
DC50 [3]: 100 to 1000 nM
Dmax [3]: > 50%

C=CC(=O)N1CCN(c2nc(OCC3(CN4CCN(CC5CCN(c6ccc7c(c6)CN(C6CCC(=O)NC6=O)C7=O)CC5)CC4)CC3)nc3c2CCN(c2cccc4cccc(Cl)c24)C3)C[C@@H]1CC#N (some centres unmarked) [Compound 98]
IC50 ([1]; Homo sapiens, A-427, 24 hr): > 1000 nM
IC50 ([2]; Homo sapiens, ASPC1, 24 hr): > 1000 nM
DC50 [3]: > 1000 nM
Dmax [3]: < 10%
IC50 [4]: > 1000 nM

C#Cc1cccc2cc(O)cc(-c3ncc4c(N5CC6CCC(C5)N6)nc(OCC5(CN6CCN(CC7CCN(c8ccc9c(c8)CN(C)C9=O)CC7)CC6)CC5)nc4c3F)c12 [Compound 81]
IC50 ([1]; Homo sapiens, A-427, 24 hr): 100 to 1000 nM
IC50 ([2]; Homo sapiens, ASPC1, 24 hr): 100 to 1000 nM
DC50 [3]: > 1000 nM
Dmax [3]: 10 to 50%
IC50 [4]: < 100 nM

C#Cc1c(F)ccc2cc(O)cc(-c3ncc4c(N5CC6CCC(C5)N6)nc(OCC5(CN6CCN(CC7CN(c8ccc9c(c8)CN(C8CCC(=O)NC8=O)C9=O)C7)CC6)CC5)nc4c3F)c12 (centres unmarked) [Compound 103]
IC50 ([1]; Homo sapiens, A-427, 24 hr): > 1000 nM
IC50 ([2]; Homo sapiens, ASPC1, 24 hr): 100 to 1000 nM
DC50 [3]: > 1000 nM
Dmax [3]: 10 to 50%
IC50 [4]: < 100 nM

Cc1ncsc1-c1ccc(CNC(=O)C2CC(O)CN2C(=O)C(NC(=O)C2CCN([C@H]3C[C@@H](COc4nc(N5CC6CCC(C5)N6)c5cnc(-c6cccc7cccc(Cl)c67)cc5n4)N(C)C3)CC2)C(C)(C)C)cc1 (stereo in doubt) [Compound 20, 1-[(3S,5S)-5-({[7-(8-chloronaphthalen-1-yl)-4-{3,8-diazabicyclo[3.2.1]octan-3-yl}pyrido[4,3-d]pyrimidin-2-yl]oxy}methyl)-1-methylpyrrolidin-3-yl]-N-[(2S)-1-[(2 S,4R)-4-hydroxy-2-({[4-(4-methyl-1,3-thiazol-5-yl)phenyl]methyl}carbamoyl)pyrrolidin-1-yl]-3,3-dimethyl-1-oxobutan-2-yl]piperidine-4-carboxamide]
GI50 [5]: > 1000 nM
IC50 [4]: > 1000 nM

C#Cc1c(F)ccc2cc(O)cc(-c3ncc4c(N5CC6CCC(C5)N6C(=O)CC)nc(OCC5(CN6CCN(CC7CCN(c8ccc9c(c8)CN(C8CCC(=O)NC8=O)C9=O)CC7)CC6)CC5)nc4c3F)c12 (centres unmarked) [Compound 91]
IC50 ([1]; Homo sapiens, A-427, 24 hr): > 1000 nM
IC50 ([2]; Homo sapiens, ASPC1, 24 hr): > 1000 nM
DC50 [3]: > 1000 nM
Dmax [3]: < 10%

C#Cc1cccc2cc(O)cc(-c3ncc4c(N5CC6CCC(C5)N6)nc(OCC5(CN6CCC(C(=O)N7CCN(c8ccc9c(c8)CN(C8CCC(=O)NC8=O)C9=O)CC7)CC6)CC5)nc4c3F)c12 (centres unmarked) [Compound 85]
IC50 ([1]; Homo sapiens, A-427, 24 hr): < 100 nM
IC50 ([2]; Homo sapiens, ASPC1, 24 hr): > 1000 nM
DC50 [3]: 100 to 1000 nM
Dmax [3]: > 50%

C#Cc1c(F)ccc2cc(O)cc(-c3nc(OC)c4c(N5CC6CCC(C5)N6C(=O)C(F)(F)F)nc(OCC5(CN6CCN(CC7CCN(c8ccc9c(c8)CN(C8CCC(=O)NC8=O)C9=O)CC7)CC6)CC5)nc4c3F)c12 (centres unmarked) [Compound 93]
IC50 ([1]; Homo sapiens, A-427, 24 hr): > 1000 nM
IC50 ([2]; Homo sapiens, ASPC1, 24 hr): 100 to 1000 nM
DC50 [3]: 100 to 1000 nM
Dmax [3]: 10 to 50%
IC50 [4]: < 100 nM

C#Cc1cccc2cc(O)cc(-c3ncc4c(N5CC6CCC(C5)N6C(=O)C(F)(F)F)nc(OCC5(CN6CCN(CC7CCN(c8ccc9c(c8)CN(C8CCC(=O)NC8=O)C9=O)CC7)CC6)CC5)nc4c3F)c12.Cl (centres unmarked) [Compound 87]
IC50 ([1]; 24 hr): 100 to 1000 nM
IC50 ([2]; 24 hr, read-out: ASPC1 at 24 hrs, IC50): 100 to 1000 nM
WB data SW1990 DMax [3]: B (Dmax = 10-50%)
